Measurements taken from publication PMC6104039 (Nature Communications, 2018).
“And” between values parts separate entries of the source, which are not always exact repeats. Equal values may be shown once.

Test system: HEK293 cells
Assay: Endogenous ceramide, HexCer and SM levels in cells treated 24 h, targeted LC-MS/MS
Format: cell-based
Conditions: 24 h
Description: Lipids were then extracted using MTBE/methanol/water as described above.
HEK293 cell culture experiment: Levels of each lipid in P053-treated HEK293 cells were normalised to the mean of the vehicle control group, and each concentration was compared to the control using ANOVA with Dunnett’s post-test. P values were adjusted for multiple comparisons in GraphPad PRISM.
Supplementary Figure 1. Ceramide, SM, and HexCer levels in HEK293 cells treated with
P053. Absolute lipid levels were determined by targeted LC-MS/MS, relative to external
standard curves. Results are mean ± SEM (n = 4) from one of two identical experiments.
Statistically significant results, based on two independent experiments, are as indicated in
Figure 2b-d. Raw data for these figures is provided in Supplementary Data File 1.

## C[C@@](N)(CO)CCc1ccc(OCc2ccc(Cl)c(Cl)c2)cc1 [P053, (S)-2-amino-4-(4-(3,4-dichlorobenzyloxy)phenyl)-2-methylbutan-1-ol]
100 nM
  reduction of C18:0 ceramide: 53%
  C18 HexCer: selectively reduced
  C18 SM: selectively reduced
  C24:0 ceramide: minor increase
  other forms of ceramide: No other forms of ceramide were reduced
HEK293 cells, P053 10 nM
  14:0 SM level: 86.4023 percentage of the vehicle control group and 87.5076 percentage of the vehicle control group and 111.4 percentage of the vehicle control group and 123.229 percentage of the vehicle control group and 107.24 percentage of the vehicle control group and 105.555 percentage of the vehicle control group and 105.116 percentage of the vehicle control group and 89.1667 percentage of the vehicle control group
  16:0 Cer level: 108.507 percentage of the vehicle control group and 85.9381 percentage of the vehicle control group and 87.0921 percentage of the vehicle control group and 116.695 percentage of the vehicle control group and 104.33 percentage of the vehicle control group and 104.933 percentage of the vehicle control group and 106.707 percentage of the vehicle control group and 101.056 percentage of the vehicle control group
  16:0 HexCer level: 83.0725 percentage of the vehicle control group and 87.9406 percentage of the vehicle control group and 128.577 percentage of the vehicle control group and 99.1213 percentage of the vehicle control group and 108.606 percentage of the vehicle control group and 107.974 percentage of the vehicle control group and 99.8354 percentage of the vehicle control group and 80.4305 percentage of the vehicle control group
  16:0 SM level: 90.9817 percentage of the vehicle control group and 95.8078 percentage of the vehicle control group and 105.689 percentage of the vehicle control group and 116.265 percentage of the vehicle control group and 95.5779 percentage of the vehicle control group and 88.0621 percentage of the vehicle control group and 88.5464 percentage of the vehicle control group and 91.6422 percentage of the vehicle control group
  16:1 SM level: 86.5462 percentage of the vehicle control group and 91.7143 percentage of the vehicle control group and 104.066 percentage of the vehicle control group and 119.449 percentage of the vehicle control group and 101.997 percentage of the vehicle control group and 91.4576 percentage of the vehicle control group and 97.8179 percentage of the vehicle control group and 89.4979 percentage of the vehicle control group
  18:0 Cer level: 75.1597 percentage of the vehicle control group and 77.1381 percentage of the vehicle control group and 83.1016 percentage of the vehicle control group and 101.889 percentage of the vehicle control group and 100.455 percentage of the vehicle control group and 110.825 percentage of the vehicle control group and 90.177 percentage of the vehicle control group and 106.32 percentage of the vehicle control group
  18:0 SM level: 87.3577 percentage of the vehicle control group and 90.1399 percentage of the vehicle control group and 117.324 percentage of the vehicle control group and 82.3337 percentage of the vehicle control group and 88.9916 percentage of the vehicle control group and 83.1732 percentage of the vehicle control group and 88.0529 percentage of the vehicle control group
  18:1 SM level: 90.5796 percentage of the vehicle control group and 93.2037 percentage of the vehicle control group and 88.8318 percentage of the vehicle control group and 108.011 percentage of the vehicle control group and 95.5914 percentage of the vehicle control group and 79.238 percentage of the vehicle control group and 78.9032 percentage of the vehicle control group and 84.4686 percentage of the vehicle control group
  22:0 Cer level: 104.639 percentage of the vehicle control group and 100.078 percentage of the vehicle control group and 73.3754 percentage of the vehicle control group and 101.613 percentage of the vehicle control group and 114.746 percentage of the vehicle control group and 118.068 percentage of the vehicle control group and 114.641 percentage of the vehicle control group and 113.437 percentage of the vehicle control group
  22:0 HexCer level: 98.6933 percentage of the vehicle control group and 87.3308 percentage of the vehicle control group and 106.948 percentage of the vehicle control group and 113.522 percentage of the vehicle control group and 107.776 percentage of the vehicle control group and 119.187 percentage of the vehicle control group and 120.197 percentage of the vehicle control group and 88.6877 percentage of the vehicle control group
  22:0 SM level: 77.9336 percentage of the vehicle control group and 82.0524 percentage of the vehicle control group and 72.1049 percentage of the vehicle control group and 117.359 percentage of the vehicle control group and 120.117 percentage of the vehicle control group and 100.918 percentage of the vehicle control group and 103.279 percentage of the vehicle control group and 105.704 percentage of the vehicle control group
  22:1 SM level: 103.42 percentage of the vehicle control group and 102.614 percentage of the vehicle control group and 99.3902 percentage of the vehicle control group and 105.25 percentage of the vehicle control group and 111.738 percentage of the vehicle control group and 105.36 percentage of the vehicle control group and 88.0812 percentage of the vehicle control group and 91.3619 percentage of the vehicle control group
  24:0 HexCer level: 87.0807 percentage of the vehicle control group and 93.0525 percentage of the vehicle control group and 81.1451 percentage of the vehicle control group and 103.31 percentage of the vehicle control group and 112.306 percentage of the vehicle control group and 129.078 percentage of the vehicle control group and 103.585 percentage of the vehicle control group and 92.4822 percentage of the vehicle control group
  24:0 SM level: 97.1928 percentage of the vehicle control group and 98.2718 percentage of the vehicle control group and 75.7857 percentage of the vehicle control group and 112.798 percentage of the vehicle control group and 112.334 percentage of the vehicle control group and 114.303 percentage of the vehicle control group and 127.22 percentage of the vehicle control group and 98.002 percentage of the vehicle control group
  24:1 Cer level: 105.077 percentage of the vehicle control group and 87.804 percentage of the vehicle control group and 67.6975 percentage of the vehicle control group and 121.49 percentage of the vehicle control group and 108.722 percentage of the vehicle control group and 121.479 percentage of the vehicle control group and 112.469 percentage of the vehicle control group and 111.695 percentage of the vehicle control group
  24:1 HexCer level: 100.2 percentage of the vehicle control group and 101.908 percentage of the vehicle control group and 107.061 percentage of the vehicle control group and 109.845 percentage of the vehicle control group and 113.174 percentage of the vehicle control group and 115.061 percentage of the vehicle control group and 107.49 percentage of the vehicle control group and 96.3768 percentage of the vehicle control group
